In patent publication US9315518B2, “Imidazopyridin-2-one derivatives” (Merck Sharp & Dohme Corp., priority 2011, dated 2016):
pEC50: −log10 of the molar value.

Biological target: recombinant human mGluR2 (Homo sapiens (Human), UniProt Q14416)
Assay: FLIPR Ca2+ mobilization assay, potentiation of glutamate response
Assay type: cell-based
Conditions: CHO dhfr- cells expressing human mGluR2 and Gα16; potentiation with EC20 glutamate (900 nM); read-out: hFLIPR pot. EC50
Experimental: Inhibition constants are determined as follows. The compounds of the present invention may be tested in a […] (FLIPR) based assay. This assay is a common functional assay to monitor Ca^2+ mobilization in whole cells expressing recombinant receptor coupled with a promiscuous G-protein. CHO dhfr-cells stably expressing recombinant human mGluR2 and Gα16 loaded with Fluo-4 AM (Invitrogen, Carlsbad Calif.) are treated with dose responses of compounds and the Ca^2+ response is monitored on a FLIPR384 (Molecular Devices, Sunnydale Calif.) for agonist activity. The potentiation response is monitored after a subsequent addition of an EC20 concentration of glutamate (900 nM). The maximum calcium response at each concentration of compound for agonist or potentiation are plotted as dose responses and the curves are fitted with a four parameters logistic equation giving EC50 and Hill coefficient using the iterative non linear curve fitting software program.

Sequence of recombinant human mGluR2 (Q14416 19-872): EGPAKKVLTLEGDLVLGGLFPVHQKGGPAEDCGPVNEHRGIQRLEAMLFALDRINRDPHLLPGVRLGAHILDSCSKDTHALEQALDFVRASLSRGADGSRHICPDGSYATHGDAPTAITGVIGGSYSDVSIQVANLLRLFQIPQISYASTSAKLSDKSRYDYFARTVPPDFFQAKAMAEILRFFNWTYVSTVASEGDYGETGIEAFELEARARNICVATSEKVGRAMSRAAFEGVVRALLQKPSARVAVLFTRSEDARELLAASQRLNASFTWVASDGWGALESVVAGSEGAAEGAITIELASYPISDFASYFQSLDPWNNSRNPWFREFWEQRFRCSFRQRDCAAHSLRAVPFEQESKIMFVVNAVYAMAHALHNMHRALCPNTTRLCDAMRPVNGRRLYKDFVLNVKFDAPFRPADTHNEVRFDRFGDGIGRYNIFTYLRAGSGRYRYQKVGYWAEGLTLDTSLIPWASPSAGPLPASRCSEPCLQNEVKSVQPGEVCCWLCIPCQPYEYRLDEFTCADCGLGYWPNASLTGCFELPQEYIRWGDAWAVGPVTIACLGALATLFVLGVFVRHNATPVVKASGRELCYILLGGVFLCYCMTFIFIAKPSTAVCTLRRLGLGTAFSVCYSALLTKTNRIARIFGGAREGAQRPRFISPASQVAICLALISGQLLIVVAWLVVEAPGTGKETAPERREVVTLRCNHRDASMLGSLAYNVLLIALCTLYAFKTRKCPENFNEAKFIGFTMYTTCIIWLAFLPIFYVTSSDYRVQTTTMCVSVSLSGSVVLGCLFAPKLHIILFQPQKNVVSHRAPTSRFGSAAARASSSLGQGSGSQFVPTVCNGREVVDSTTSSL

Compound	pEC50
Cn1c(=O)n(CC(C)(C)C)c2ccc(C3=CC4CCC3CN4C(=O)c3csnn3)nc21 (stereo not shown) [Compound 2-8, 1-(2,2-dimethylpropyl)-3-methyl-5-[2-(1,2,3-thiadiazol-4-ylcarbonyl)-2-azabicyclo[2.2.2]oct-5-en-5-yl]-1,3-dihydro-2H-imidazo[4,5-b]pyridin-2-one]	7.55
Cn1c(=O)n(CC(C)(C)C)c2ccc(C3=CC4CCC3CN4C(=O)c3cccnc3)nc21 (stereo not shown) [Compound 2-9, 1-(2,2-dimethylpropyl)-3-methyl-5-[2-(pyridin-3-ylcarbonyl)-2-azabicyclo[2.2.2]oct-5-en-5-yl]-1,3-dihydro-2H-imidazo[4,5-b]pyridin-2-one]	7.00
Cn1c(=O)n(CC(C)(C)C)c2ccc(C3=CC4CCC3CN4C(=O)C3CC3)nc21 (stereo not shown) [Compound 2-16, 5-[2-(cyclopropylcarbonyl)-2-azabicyclo[2.2.2]oct-5-en-5-yl]-1-(2,2-dimethylpropyl)-3-methyl-1,3-dihydro-2H-imidazo[4,5-b]pyridin-2-one]	7.19
Cn1c(=O)n(CC(C)(C)C)c2ccc(C3=CC4CCC3CN4C(=O)Cn3cncn3)nc21 (stereo not shown) [Compound 2-22, 1-(2,2-dimethylpropyl)-3-methyl-5-[2-(1H-1,2,4-triazol-1-ylacetyl)-2-azabicyclo[2.2.2]oct-5-en-5-yl]-1,3-dihydro-2H-imidazo[4,5-b]pyridin-2-one]	7.25
Cn1c(=O)n(CC(C)(C)C)c2ccc(C3=CC4CCC3CN4C(=O)c3ncco3)nc21 (stereo not shown) [Compound 2-34, 1-(2,2-dimethylpropyl)-3-methyl-5-[2-(1,3-oxazol-2-ylcarbonyl)-2-azabicyclo[2.2.2]oct-5-en-5-yl]-1,3-dihydro-2H-imidazo[4,5-b]pyridin-2-one]	7.64
Cn1c(=O)n(CC(C)(C)C)c2ccc(C3CC4CCC3CN4C(=O)c3ccon3)nc21 (stereo not shown) [Compound 5-2, 1-(2,2-Dimethylpropyl)-5-[2-(isoxazol-3-ylcarbonyl)-2-azabicyclo[2.2.2]-oct-5-yl]-3-methyl-1,3-dihydro-2H-imidazo[4,5-b]pyridin-2-one]	6.49
Cn1c(=O)n(CC2CC2(F)F)c2ccc(C3=CC4CCC3CN4C(=O)c3ccon3)nc21 (stereo not shown) [Compound 6-4, 1-[(2,2-Difluorocyclopropyl)methyl]-5-[2-(isoxazol-3-ylcarbonyl)-2-azabicyclo-[2.2.2]oct-5-en-5-yl]-3-methyl-1,3-dihydro-2H-imidazo[4,5-b]pyridin-2-one]	7.54
Cn1c(=O)n(CC(C)(C)C)c2ccc(C3=CC4CN(C(=O)C5(O)CCN(C(=O)OC(C)(C)C)C5)CC4C3)nc21 (stereo not shown) [Compound 8-6, tert-butyl 3-({5-[1-(2,2-dimethylpropyl)-3-methyl-2-oxo-2,3-dihydro-1H-imidazo[4,5-b]pyridin-5-yl]-3,3a,4,6a-tetrahydrocyclopenta[c]pyrrol-2(1H)-yl}carbonyl)-3-hydroxypyrrolidine-1-carboxylate]	6.29
Cn1c(=O)n(CC(C)(C)C)c2ccc(C3=CC4CN(C(=O)CO)CC4C3)nc21 (stereo not shown) [Compound 8-9, 1-(2,2-dimethylpropyl)-5-[2-(hydroxyacetyl)-1,2,3,3a,4,6a-hexahydrocyclopenta[c]pyrrol-5-yl]-3-methyl-1,3-dihydro-2H-imidazo[4,5-b]pyridin-2-one]	6.57
Cn1c(=O)n(CC(C)(C)C)c2ccc(C3=CC4CN(C(=O)C5(O)CCC5)CC4C3)nc21 (stereo not shown) [Compound 8-14, 1-(2,2-dimethylpropyl)-5-{2-[(1-hydroxycyclobutyl)carbonyl]-1,2,3,3a,4,6a-hexahydrocyclopenta[c]pyrrol-5-yl}-3-methyl-1,3-dihydro-2H-imidazo[4,5-b]pyridin-2-one]	6.87
Cn1c(=O)n(CC(C)(C)C)c2ccc(C3=CC4CN(C(=O)c5ncco5)CC4C3)nc21 (stereo not shown) [Compound 8-38]	7.75
Cn1c(=O)n(CC(C)(C)C)c2ccc(C3CC4CN(C(=O)c5ncc[nH]5)CC4C3)nc21 (stereo not shown) [Compound 11-5, 1-(2,2-dimethylpropyl)-5-[2-(1H-imidazol-2-ylcarbonyl)octahydrocyclo-penta[c]pyrrol-5-yl]-3-methyl-1,3-dihydro-2H-imidazo[4,5-b]pyridin-2-one]	6.41
Cn1c(=O)n(CC2CC2(F)F)c2ccc(C3=CC4CN(C(=O)c5ncco5)CC4C3)nc21 (stereo not shown) [Compound 14-6, 1-[(2,2-difluoro-cyclopropyl)methyl]-3-methyl-5-[2-(1,3-oxazol-2-ylcarbonyl)-1,2,3,3a,4,6a-hexahydrocyclo-penta[c]pyrrol-5-yl]-1,3-dihydro-2H-imidazo[4,5-b]pyridin-2-one]	6.91
Cn1c(=O)n(CC(C)(C)C)c2ccc(C3=CCC(C(=O)NCc4ncco4)CC3)nc21 (stereo not shown) [Compound 17-15, 4-[1-(2,2-dimethylpropyl)-3-methyl-2-oxo-2,3-dihydro-1H-imidazo[4,5-b]pyridin-5-yl]-N-(1,3-oxazol-2-ylmethyl)cyclohex-3-ene-1-carboxamide]	6.23
Cn1c(=O)n(CC(C)(C)C)c2ccc(C3=CCC(NC(=O)C4CCCO4)CC3)nc21 (stereo not shown) [Compound 17-20, N-{4-[1-(2,2-dimethylpropyl)-3-methyl-2-oxo-2,3-dihydro-1H-imidazo[4,5-b]pyridin-5-yl]cyclohex-3-en-1-yl}tetrahydrofuran-2-carboxamide]	6.48
Cn1c(=O)n(CC(C)(C)C)c2ccc(C3CCC(C)(C)C(NC(=O)CCn4cncn4)C3)nc21 (stereo not shown) [Compound 18-10, N-{5-[1-(2,2-dimethylpropyl)-3-methyl-2-oxo-2,3-dihydro-1H-imidazo[4,5-b]pyridin-5-yl]-2,2-dimethylcyclohexyl}-3-(1H-1,2,4-triazol-1-yl)propanamide]	5.66
Cn1c(=O)n(CC(C)(C)C)c2ccc(C3CCC(C)(C)C(NC(=O)c4ccc(OC(F)(F)F)cc4)C3)nc21 (stereo not shown) [Compound 18-42, N-{5-[1-(2,2-dimethylpropyl)-3-methyl-2-oxo-2,3-dihydro-1H-imidazo[4,5-b]pyridin-5-yl]-2,2-dimethylcyclohexyl}-4-(trifluoro-methoxy)benzamide]	6.01
Cn1c(=O)n(CC(C)(C)C)c2ccc(C3CCC(C)(C)C(NC(=O)c4cnsn4)C3)nc21 (stereo not shown) [Compound 18-200, N-{5-[1-(2,2-dimethylpropyl)-3-methyl-2-oxo-2,3-dihydro-1H-imidazo[4,5-b]pyridin-5-yl]-2,2-dimethylcyclohexyl}-1,2,5-thiadiazole-3-carboxamide]	7.36
Cn1cnc(S(=O)(=O)N2CCCC(c3ccc4c(n3)n(C)c(=O)n4CC(C)(C)C)C2)c1 (stereo not shown) [Compound 19-4, 1-(2,2-dimethylpropyl)-3-methyl-5-{1-[(1-methyl-1H-imidazol-4-yl)sulfonyl]piperidin-3-yl}-1,3-dihydro-2H-imidazo[4,5-b]pyridin-2-one]	6.02
Cc1cccc(S(=O)(=O)NC2CC(c3ccc4c(n3)n(C)c(=O)n4CC(C)(C)C)CCC2(C)C)c1 (stereo not shown) [Compound 19-62, N-{5-[1-(2,2-dimethylpropyl)-3-methyl-2-oxo-2,3-dihydro-1H-imidazo[4,5-b]pyridin-5-yl]-2,2-dimethylcyclohexyl}-3-methylbenzenesulfonamide]	6.93
CN1c2nc(C3=CC4CN(C(=O)C(C)(C)O)CC4C3)ccc2N(CC2CC2(F)F)S1(=O)=O (stereo not shown) [Compound 24-7, 1-[5-{1-[(2,2-difluorocyclopropyl)methyl]-3-methyl-2,2-dioxido-1,3-dihydro[1,2,5]thiadiazolo[3,4-b]pyridin-5-yl}-3,3a,4,6a-tetrahydrocyclopenta [c]pyrrol-2(1H)-yl]-2-methyl-1-oxopropan-2-ol]	7.31
CN1c2nc(C3=CCN(C(=O)c4ccon4)C3)ccc2N(CC2CC2(F)F)S1(=O)=O (stereo not shown) [Compound 24-20, 1-[(2,2-difluorocyclopropyl)methyl]-5-[1-(isoxazol-3-ylcarbonyl)-2,5-dihydro-1H-pyrrol-3-yl]-3-methyl-1,3-dihydro[1,2,5] thiadiazolo[3,4-b]pyridine 2,2-dioxide]	6.75
CN1c2nc(C3CCCNC3)ccc2N(CC2CC2(F)F)S1(=O)=O (stereo not shown) [Compound 25-5, 1-[(2,2-difluorocyclopropyl)methyl]-3-methyl-5-piperidin-3-yl-1,3-dihydro[1,2,5] thiadiazolo[3,4-b]pyridine 2,2-dioxide]	6.44
CC1C(c2ccc3c(n2)N(C)S(=O)(=O)N3CC2CC2(F)F)C1C(C)(C)O (stereo not shown) [Compound 34-3, 2-(2-{1-[(2,2-difluorocyclopropyl)methyl]-3-methyl-2,2-dihydro[1,2,5]thiadiazolo[3,4-b]pyridin-5-yl}-3-methylcyclopropyl) propan-2-ol]	7.84
Cn1cnc(C(=O)NCCCCc2ccc3c(n2)n(C)c(=O)n3CC(C)(C)C)c1 [Compound 38-5, N-{4-[1-(2,2-dimethylpropyl)-3-methyl-2-oxo-2,3-dihydro-1H-imidazo[4,5-b]pyridin-5-yl]butyl}-1-methyl-1H-imidazole-4-carboxamide]	5.93
